The values that follow come from article PMC10436262, “Structure-Based Design of Inhibitors of the m^6A-RNA Writer Enzyme METTL3” (ACS Bio & Med Chem Au, 2023).

In the test the target is T1, METTL3/METTL14 (Homo sapiens, UniProt Q86U44).
T1 construct: made in house; host or cells: Sf9 insect cells (baculovirus)
Nature of the test: METTL3 enzymatic inhibition assay by homogeneous time-resolved fluorescence (HTRF). The following applies: for pIC50 / IC50: HTRF assay; for pIC50: racemic mixture, read-out: IC50; for fold improvement in affinity (IC50) vs compound 4: relative to reference compound 4; for S/R Ratio: ratio of IC50 of S isomer to R isomer. In kind it is biochemical. As to the method:
Compound potencies were evaluated by using a previously reported METTL3 inhibition assay. […] Tested compounds that inhibit METTL3 decrease the m^6A level and thus reduce the HTRF signal. The biochemical assay was performed, as described previously.[19] The IC50 values derived from fitting a dose–response curve to the data using nonlinear regression. The IC50 values are given as an average of at least two independent measurements for each compound in the text.
Background: TR-FRET usually uses a lanthanide donor and a delayed reading to cut background.

The mark [1] stands for this setting: R isomer, read-out: IC50 (µM) R.
Setting [2] is: S isomer, read-out: IC50 (µM) S.

Each structure is given as a SMILES string. pIC50: −log10 of the molar value. “And” between values parts separate entries of the source, which are not always exact repeats. Equal entries are not always repeated. Where two headings read alike, the source gives them in different places. Some results are limits rather than exact numbers.

T1 sequence (Q86U44 whole entry): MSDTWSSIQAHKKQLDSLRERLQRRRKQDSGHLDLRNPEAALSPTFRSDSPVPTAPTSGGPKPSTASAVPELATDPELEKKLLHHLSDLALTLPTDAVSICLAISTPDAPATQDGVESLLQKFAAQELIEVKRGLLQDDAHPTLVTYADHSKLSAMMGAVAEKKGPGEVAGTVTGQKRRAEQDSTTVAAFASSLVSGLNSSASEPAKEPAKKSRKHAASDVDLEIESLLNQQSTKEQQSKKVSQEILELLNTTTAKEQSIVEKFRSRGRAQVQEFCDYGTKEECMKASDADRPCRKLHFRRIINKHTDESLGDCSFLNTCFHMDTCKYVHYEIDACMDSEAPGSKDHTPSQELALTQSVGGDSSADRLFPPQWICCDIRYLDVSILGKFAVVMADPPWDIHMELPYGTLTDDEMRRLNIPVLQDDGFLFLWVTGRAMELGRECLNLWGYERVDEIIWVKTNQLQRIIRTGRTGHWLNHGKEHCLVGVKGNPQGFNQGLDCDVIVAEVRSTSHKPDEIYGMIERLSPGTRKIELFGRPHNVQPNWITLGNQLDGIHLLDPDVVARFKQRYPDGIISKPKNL
T1 sequence (Q9HCE5 whole entry partner): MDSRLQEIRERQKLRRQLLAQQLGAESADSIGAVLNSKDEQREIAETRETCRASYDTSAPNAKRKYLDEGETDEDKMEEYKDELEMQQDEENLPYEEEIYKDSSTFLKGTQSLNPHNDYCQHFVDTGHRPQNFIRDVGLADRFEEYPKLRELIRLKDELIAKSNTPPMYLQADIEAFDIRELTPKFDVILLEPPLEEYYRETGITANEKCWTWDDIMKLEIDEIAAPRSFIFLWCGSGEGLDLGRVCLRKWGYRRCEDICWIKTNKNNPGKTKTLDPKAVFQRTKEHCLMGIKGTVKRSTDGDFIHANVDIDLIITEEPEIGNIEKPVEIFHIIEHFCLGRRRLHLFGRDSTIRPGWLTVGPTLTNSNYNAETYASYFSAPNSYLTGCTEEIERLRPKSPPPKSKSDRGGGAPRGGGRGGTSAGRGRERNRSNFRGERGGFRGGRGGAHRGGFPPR

As usually defined, the pIC50 is the IC50 on a negative log10 scale, so that one unit is a factor of ten. Regarding `CNc1cc(N2CCCC(O)(CNC(=O)c3ccc(CN4CCCCC4)cc3)C2)ncn1` (stereo not shown) [compound 1], the pIC50 was 3.37. For the compound `CNc1cc(N2CCCC(O)(CNC(=O)c3ccc(CN4CCC(C)CC4)cc3)C2)ncn1` (stereo not shown) [compound 3], the negative-log IC50 (pIC50) is 4.80. Take `CNc1cc(N2CCCC(O)(CNC(=O)c3ccc(CN4CCC(C)(C)CC4)cc3)C2)ncn1` (stereo not shown) [compound 4]: the pIC50 is 5.09. Also, the “fold improvement in affinity (IC50) vs compound 1” value (relative to hit compound 1) was 50 fold and 52.4 fold.

For `CNc1cc(N2CCCC(O)(CNC(=O)c3ccc(CN4CCNCC4)cc3)C2)ncn1` (stereo not shown) [compound 5], the pIC50 is 3.75. Still for that read-out and setting: with `CCC1CCN(Cc2ccc(C(=O)NCC3(O)CCCN(c4cc(NC)ncn4)C3)cc2)CC1` (stereo not shown) [compound 6] the figure was 3.64; with `CNc1cc(N2CCCC(O)(CNC(=O)c3ccc(CN4CCC(C)(N)CC4)cc3)C2)ncn1` (stereo not shown) [compound 7], 4.38.

`CNc1cc(N2CCCC(O)(CNC(=O)c3ccc(CN4CCC(C)(CN)CC4)cc3)C2)ncn1` (stereo not shown) [compound 8]: the pIC50 is 4.49. In the case of `CC1(C)CCN(Cc2ccc(C(=O)NCC3(O)CCCN(c4cc(NCc5cccc6nc[nH]c56)ncn4)C3)cc2)CC1` (stereo not shown) [compound 9], the pIC50 is 5.68. With `CC1(C)CCN(Cc2ccc(C(=O)NCC3(O)CCCN(c4cc(NCc5cccc6sccc56)ncn4)C3)cc2)CC1` (stereo not shown) [compound 10], the pIC50 was 6.09 and the “fold improvement in affinity (IC50) vs compound 4” value (“fold improvement … vs compound 4” below) was 10 fold. Take `CC1(C)CCN(Cc2ccc(C(=O)NCC3(O)CCCN(c4cc(NCc5ccoc5)ncn4)C3)cc2)CC1` (stereo not shown) [compound 11]: the pIC50 is under 5.00. As to `CC1(C)CCN(Cc2ccc(C(=O)NCC3(O)CCCN(c4cc(NCc5ccsc5)ncn4)C3)cc2)CC1` (stereo not shown) [compound 12], the pIC50 was 5.74. Same read-out and setting: with `CC(Nc1cc(N2CCCC(O)(CNC(=O)c3ccc(CN4CCC(C)(C)CC4)cc3)C2)ncn1)c1ccccc1` (stereo not shown) [compound 13] the figure was 4.92. On the same count and under the same terms, with `CC1(C)CCN(Cc2ccc(C(=O)NCC3(O)CCCN(c4cc(NC(C)(C)c5ccccc5)ncn4)C3)cc2)CC1` (stereo not shown) [compound 14] the figure was 4.51. Regarding `CC1(C)CCN(Cc2ccc(C(=O)NCC3(O)CCCN(c4cc(NCc5cccc6ccccc56)ncn4)C3)cc2)CC1` (stereo not shown) [compound 15], the negative-log IC50 (pIC50) is 6.11 and the “fold improvement … vs compound 4” value is given as 10 fold.

Broadly, the IC50 is the midpoint of a concentration-inhibition curve. Take `CC1(C)CCN(Cc2ccc(C(=O)NCC3(O)CCCN(c4cc(NCc5ccccc5)ncn4)C3)cc2)CC1` (stereo not shown) [compound 16]: the pIC50 was 5.77, the “S/R Ratio” value turned out to be 5.9 and the “fold improvement … vs compound 4” value came to 4.8 fold. Under setting [1], the concentration for half-maximal inhibition (IC50) was determined as 1.2 µM. For the same compound, under setting [2], the IC50 worked out at 7.1 µM. The “fold difference in activity between R and S configurations” value (R more active than S) is about 6 fold. Take `O=C(NCC1(O)CCCN(c2cc(NCc3ccccc3)ncn2)C1)c1ccc(CN2CCC3(CC2)CC3)cc1` (stereo not shown) [compound 17]: the pIC50 is 5.48.

Turning to `CCC1(C)CCN(Cc2ccc(C(=O)NCC3(O)CCCN(c4cc(NCc5ccccc5)ncn4)C3)cc2)CC1` (stereo not shown) [compound 18], the pIC50 was 5.33. Same read-out and setting: to `CCCCC1(C)CCN(Cc2ccc(C(=O)NCC3(O)CCCN(c4cc(NCc5ccccc5)ncn4)C3)cc2)CC1` (stereo not shown) [compound 19] belongs 5.26; to `CC1(CCO)CCN(Cc2ccc(C(=O)NCC3(O)CCCN(c4cc(NCc5ccccc5)ncn4)C3)cc2)CC1` (stereo not shown) [compound 20], 4.75; to `CC(F)C1CCN(Cc2ccc(C(=O)NCC3(O)CCCN(c4cc(NCc5ccccc5)ncn4)C3)cc2)CC1` (stereo not shown) [compound 21], 4.64. For the compound `CC1(F)CC12CCN(Cc1ccc(C(=O)NCC3(O)CCCN(c4cc(NCc5ccccc5)ncn4)C3)cc1)CC2` (stereo not shown) [compound 22], the negative logarithm of the IC50 (pIC50) was 4.64. As to `CC(C)C1(O)CN(Cc2ccc(C(=O)NCC3(O)CCCN(c4cc(NCc5ccccc5)ncn4)C3)cc2)C1` (stereo not shown) [compound 23], the negative-log IC50 (pIC50) was 4.82. Same read-out and setting: with `CC1(O)CCN(Cc2ccc(C(=O)NCC3(O)CCCN(c4cc(NCc5ccccc5)ncn4)C3)cc2)CC1` (stereo not shown) [compound 24] the figure was 5.08; with `CCCCN(Cc1ccc(C(=O)NCC2(O)CCCN(c3cc(NCc4ccccc4)ncn3)C2)cc1)C1CCCCC1` (stereo not shown) [compound 26], under 5.00; with `CC1(C)CN(Cc2ccc(C(=O)NCC3(O)CCCN(c4cc(NCc5ccccc5)ncn4)C3)cc2)C1` (stereo not shown) [compound 27], 5.03.

With `CCC(CC)CNCc1ccc(C(=O)NCC2(O)CCCN(c3cc(NCc4ccccc4)ncn3)C2)cc1` (stereo not shown) [compound 28], the pIC50 is 5.13. For `O=C(NCC1(O)CCCN(c2cc(NCc3ccccc3)ncn2)C1)c1ccc(CN2CC3(CCC3)C2)cc1` (stereo not shown) [compound 29], the pIC50 is 5.80 and the “S/R Ratio” value is on record as 2.5. Moreover, under setting [1], the IC50 stood at 0.53 µM. The half-inhibitory concentration (IC50) under setting [2] stood at 1.3 µM. As to `CC(C)C1N(Cc2ccc(C(=O)NCC3(O)CCCN(c4cc(NCc5ccccc5)ncn4)C3)cc2)CC12CCC2` (stereo not shown) [compound 30], the negative logarithm of the IC50 (pIC50) was 6.89. With `O=C(NCC1(O)CCCN(c2cc(NCc3ccccc3)ncn2)C1)c1ccc(CN2CC3(CCCC3)C2)cc1` (stereo not shown) [compound 32], the pIC50 was 5.11. Still for that read-out and setting: with `CC(C)CNCc1ccc(C(=O)NCC2(O)CCCN(c3cc(NCc4ccccc4)ncn3)C2)cc1` (stereo not shown) [compound 33] the figure was 5.29. Same read-out and setting: with `CC(C)CCNCc1ccc(C(=O)NCC2(O)CCCN(c3cc(NCc4ccccc4)ncn3)C2)cc1` (stereo not shown) [compound 34] the figure was 4.75; with `CC(C)(C)CNCc1ccc(C(=O)NCC2(O)CCCN(c3cc(NCc4ccccc4)ncn3)C2)cc1` (stereo not shown) [compound 35], 5.30. With `O=C(NCC1(O)CCCN(c2cc(NCc3ccccc3)ncn2)C1)c1ccc(CNCC2CCC2)cc1` (stereo not shown) [compound 36], the negative-log IC50 (pIC50) was 5.28.

Regarding `CCCN(Cc1ccc(C(=O)NCC2(O)CCCN(c3cc(NCc4ccccc4)ncn3)C2)cc1)C1CCCC1` (stereo not shown) [compound 37], the pIC50 is under 5.00. Regarding `CCCN(Cc1ccc(C(=O)NCC2(O)CCCN(c3cc(NCc4ccccc4)ncn3)C2)cc1)C1CCCCC1` (stereo not shown) [compound 38], the negative logarithm of the IC50 (pIC50) was under 5.00. The same measure, in the same setting: to `CCCCN(Cc1ccc(C(=O)NCC2(O)CCCN(c3cc(NCc4ccccc4)ncn3)C2)cc1)C1CCCC1` (stereo not shown) [compound 39] belongs under 5.00.

On to `O=C(NCC1(O)CCCN(c2cc(NCc3ccccc3)ncn2)C1)c1ccc(CN2CCCCC2)cc1` (stereo not shown) [compound 40], for which the pIC50 was 4.85.

`CC1CCN(Cc2ccc(C(=O)NCC3(O)CCCN(c4cc(NCc5ccccc5)ncn4)C3)cc2)C2CCCCC12` (stereo not shown) [compound 41]: the pIC50 was 4.92.

As to `O=C(NCC1(O)CCCN(c2cc(NCc3ccccc3)ncn2)C1)c1ccc(CN2CCCC3CCCCC32)cc1` (stereo not shown) [compound 42], the pIC50 is 5.08.

For `CSc1cc(CN2CCC(C)(C)CC2)ccc1C(=O)NCC1(O)CCCN(c2cc(NCc3ccccc3)ncn2)C1` (stereo not shown) [compound 44], the pIC50 was 5.96. Still for that read-out and setting: to `CC1(C)CCN(Cc2ccc(C(=O)NCC3(O)CCCN(c4cc(NCc5ccccc5)ncn4)C3)cn2)CC1` (stereo not shown) [compound 45] belongs 5.00.

On to `CC1(C)CCN(Cc2ccc3c(NCC4(O)CCCN(c5cc(NCc6ccccc6)ncn5)C4)cccc3c2)CC1` (stereo not shown) [compound 46], for which the pIC50 is 6.44 and the “S/R Ratio” value worked out at 60.0. Moreover, the half-inhibitory concentration (IC50) under setting [1] is 0.2 µM. Further, under setting [2], the IC50 was 12 µM. Also, the “fold improvement in affinity (IC50) vs compound 16” value (relative to reference compound 16) is 5 fold and 4.7 fold.

For the compound `CC1(C)CCN(Cc2ccc3nc(CC4(O)CCCN(c5cc(NCc6ccccc6)ncn5)C4)[nH]c3c2)CC1` (stereo not shown) [compound 47], the pIC50 was 5.54.

As to `CC1(C)CCN(Cc2ccc(N3CC4(CCN(c5cc(NCc6ccccc6)ncn5)CC4)OCC3=O)cn2)CC1` [compound 48], the negative-log IC50 (pIC50) is 5.29.

Regarding `CC1(C)CCN(CCCCC(=O)NCC2(O)CCCN(c3cc(NCc4ccccc4)ncn3)C2)CC1` (stereo not shown) [compound 49], the pIC50 was 4.22. The same measure, in the same setting: with `CC(C)C1N(Cc2ccc(C(=O)NCC3(O)CCCN(c4cc(NCc5ccccc5)ncn4)C3)c(O)c2)CC12CCC2` (stereo not shown) [compound 50] the figure was 6.57; with `CNC(=O)c1cccc(CNc2cc(N3CCCC(O)(CNC(=O)c4ccc(CN5CCC(C)(C)CC5)cc4O)C3)ncn2)c1` (stereo not shown) [compound 51], 6.72.

For `CC1(C)CCN(Cc2ccc(C(=O)NCC3(O)CCCN(c4cc(NCc5cccc(S(N)(=O)=O)c5)ncn4)C3)c(O)c2)CC1` (stereo not shown) [compound 52], the pIC50 is 6.52. The same measure, in the same setting: to `O=C(NCC1(O)CCCN(c2cc(NCc3ccccc3)ncn2)C1)c1ccc(CN2CC3(CCC3)C2C2CC2)cc1O` (stereo not shown) [compound 53] belongs 6.08.
